Test results: patent US7115754B2, “Pyrrolidine derivatives as oxytocin antagonists” (Applied Research Systems ARS Holding N.V., priority 2002, dated 2006)

Tests used:
[1] = target: T1, human Oxytocin (hOT) receptor (Homo sapiens, UniProt P30559); test: In vitro competition binding assay on hOT receptor with scintillation proximity assay; conditions: inhibition of [125I]-OVTA binding, membranes from HEK293EBNA cells expressing hOT receptor; read-out: Binding Affinity hOT-R (Ki [nM])
T1 construct: expressed in transfected cells; host or cells: HEK293EBNA (membranes)
T1 sequence (P30559 1-389): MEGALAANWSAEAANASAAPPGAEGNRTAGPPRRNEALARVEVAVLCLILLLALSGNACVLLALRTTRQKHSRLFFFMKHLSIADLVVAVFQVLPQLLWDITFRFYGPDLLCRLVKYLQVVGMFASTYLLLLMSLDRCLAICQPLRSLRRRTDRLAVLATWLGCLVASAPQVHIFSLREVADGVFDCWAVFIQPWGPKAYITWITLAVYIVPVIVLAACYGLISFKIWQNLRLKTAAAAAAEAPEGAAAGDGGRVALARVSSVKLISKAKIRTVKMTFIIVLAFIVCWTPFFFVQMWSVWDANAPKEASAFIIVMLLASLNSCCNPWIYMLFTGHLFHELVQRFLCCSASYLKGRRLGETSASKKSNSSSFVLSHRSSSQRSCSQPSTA
Method: The compounds according to Formula I may be subjected to the following assays: • a) In vitro Competition Binding Assay on hOT Receptor with Scintillation Proximity Assay (11).
This assay allows to determine the affinity of the test compounds for the human Oxytocin (hOT) receptor. Membranes from HEK293EBNA (cells expressing the hOT receptor) were suspended in buffer containing 50 mM Tris-HCl, pH 7.4, 5 mM MgCl2 and 0.1% BSA (w/v). The membranes (2–4 μg) were mixed with 0.1 mg SPA bead coated with wheat-germ aglutinin (WGA-PVT-Polyethylene Imine beads from Amersham) and 0.2 nM of the radiolabelled [^125I]-OVTA (OVTA being Ornithin Vasoactive, an analogue of OT for competitive binding experiments). Non-specific binding was determined in the presence of 1 μM Oxytocin. The total assay volume was 100 μl. The plates (Corning® NBS plate) were incubated at room temperature for 30 min and counted on a Mibrobeta® plate scintillation counter. Competitive binding was performed in presence of compounds of formula (I) at the following concentrations: 30 μM, 10 μM, 1 μM, 300 nM, 100 nM, 10 nM, 1 nM, 100 pM, 10 pM. The competitive binding data were analysed using the iterative, nonlinear, curve-fitting program, “Prism” (GraphPad Software, Inc).
The ability of pyrrolidine derivatives of formula (I) to inhibit the binding of ^125-OVTA to the OT-receptor was assessed using the above described in vitro biological assay. Representative values for some example compounds are given in Table I where the binding affinity of test compounds from the above examples is expressed by the inhibition constant (Ki; nM). From these values, it can be derived that said test compounds according to formula I do show a significant binding to the oxytocin receptor.

[2] = target: T2, hOT receptor (HEK293EBNA cells expressing the hOT receptor) (Homo sapiens, UniProt P30559); test: Functional assay No. 1: inhibition of oxytocin mediated Ca2+-mobilization by FLIPR; assay type: cell-based; conditions: OT 40 nM, fluo-4, read-out: Inhibition of Ca2+ mobilisation, hOT-R IC50
T2 construct: expressed in transfected cells; host or cells: HEK293EBNA
T2 sequence (P30559 1-389): T1 sequence (P30559 1-389)
Method: This assay allows the measurement of the inhibition of OT/OT-R mediated calcium mobilization by test compounds of formula (I).
Preparing the plates: FLIPR-plates were pre-coated with PLL (Poly-L-Lysine) 10 μg/ml+0.1% gelatine to attach HEK293EBNA cells (Human Embryonic Kidney cells expressing the hOT receptor) and incubated for 30 min up to 2 days at 37° C. The cells were plated out into 96-well-plates (60000 cells/well).
Labelling with fluo-4: 50 μg of fluo-4 (Ca2+ sensitive fluorescent dye) were dissolved in 20 μl pluronic acid (20% in DMSO). The dissolved fluo-4 was then diluted in 10 ml DMEM (Dubecco's Minimal Essential Medium)-F12 culture medium. The plates were washed one time with DMEM-F12 medium. […] Fluo-4 is taken up by the cytoplasm of the cells. […]
The relative fluorescence of Fluo-4 (λex=488 nm, λem=590 nm) is then measured by the FLIPR in presence or absence of compounds of formula (I). The fluorescence of the marker being sensitive to the amount of Ca^2+, the Ca^2+ movements can be detected. Then, it can be determined the ability of compounds of formula (I) to antagonize the oxytocin-induced intracellular Ca^2+-mobilization mediated by the oxytocin receptor.
The activities of the pyrrolidine derivatives according to formula I were assessed using the above described in vitro biological assay. […]

[3] = system: oxytocin-induced uterine contractions in the rat; test: In vivo model for inhibition of uterine contractions; conditions: 40 min after test compound administration
Method: The ability of compounds of formula (I) to effectively antagonize oxytocin-induced IP3-synthesis mediated by the oxytocin receptor, can be assessed using the above described in vitro biological assay. • d) In vivo Model for Inhibition of Uterine Contractions
The assay evaluates the biological effect of tested compounds in an in vivo model of preterm labor, premature birth.
Non-pregnant Charles River CD (SD) BR female rats (9–10 weeks old, 200–250 g) were treated at 18 and 24 hours before the experiment with 250 μg/kg, i.p. diethylstilbestrol (DES). For the assay, the animal was anaesthetised with urethane (1.75 g/kg, i.p.) and placed on a homeothermic operating table. The trachea was isolated and cannulated with a suitable polyethylene (PE) tubing. […]
The contractile response of the uterus to oxytocin was quantified by measuring the intra-uterine pressure and the number of contractions. The effect of the reference and test compounds was evaluated by comparing pre- and post-treatment pressure values. In addition, contractions of the uterine were measured at 5, 40, 75, 110, 145 and 180 minutes after test compound administration.
The activities of the pyrrolidine derivatives claimed in the Formula I can be assessed using the above described in vivo biological assay. […]

Structure (SMILES)	Ki [1]	IC50 [2]	% Reduction of Uterine Contraction ([3]; 10 mg/kg per i.v.)	% Reduction of Uterine Contraction ([3]; 30 mg/kg per os)
CO/N=C1/C[C@@H](CO)N(C(=O)c2ccc(-c3ccccc3)cc2)C1 [Compound 4, (3Z,5S)-1-(1,1′-biphenyl-4-ylcarbonyl)-5-(hydroxymethyl) pyrrolidin-3-one O-methyloxime]	94.9 nM	0.01 µM		
CON=C1C[C@@H](CO)N(C(=O)c2ccc(-c3ccccc3)cc2)C1 [Compound 2, (3EZ,5S)-1-(1,1′-biphenyl-4-ylcarbonyl)-5 (hydroxymethyl) pyrrolidin-3-one O-methyloxime]	139 nM	0.09 µM	39.8 ± 10.0%	50.9 ± 8.6%
CON=C1C[C@@H](COCC(=O)NCCN2CCCC2)N(C(=O)c2ccc(-c3ccccc3)cc2)C1 [Compound 7, 2-{[(2S,4EZ)-1-(1,1′-biphenyl-4-ylcarbonyl)-4-(methoxyimino)pyrrolidin-2-yl]methoxy}-N-(2-pyrrolidin-1-ylethyl)acetamide]	140 nM			

Now from value to molecule, other results behind:

Ki [1]	IC50 [2]	Structure (SMILES)	% Reduction of Uterine Contraction ([3]; 10 mg/kg per i.v.)	% Reduction of Uterine Contraction ([3]; 30 mg/kg per os)
5.1 nM		CON=C1C[C@@H](CN2C(=O)c3ccccc3C2=O)N(C(=O)c2ccc(-c3ccccc3)cc2)C1 [Compound 12, 2-{[(2S,4EZ)-1-(1,1′-biphenyl-4-ylcarbonyl)-4-(methoxyimino)pyrrolidin-2-yl]methyl}-1H-isoindole-1,3(2H)-dione]		
55 nM		COC[C@@H]1CC(=NOC)CN1C(=O)c1ccc(-c2ccccc2)cc1 [Compound 8, (3EZ,5S)-1-(1,1′-biphenyl-4-ylcarbonyl)-5-(methoxymethyl)pyrrolidin-3-one O-methyloxime]		
120 nM		CON=C1C[C@@H](CCO)N(C(=O)c2ccc(-c3ccccc3)cc2)C1 [Compound 16, (3EZ,5S)-1-(1,1′-biphenyl-4-ylcarbonyl)-5-(2-hydroxyethyl)pyrrolidin-3-one O-methyloxime]		
